Experimental data as given in patent publication US20140309295A1, “ANTIEPILEPTIC, HYPOCHOLESTEROLEMIC AND NEUROPROTECTIVE COMPOUND” (NEURON BIOPHARMA, S.A., priority 2009, published 2014).

Tests used:
[1] = tested on: human neuroblastoma SK-N-MC cells; experiment: Protection against neuronal death induced by apoptosis (camptothecin), WST-1; assay type: cell-based; settings: 20 nM camptothecin
Method: (§1) The assay was performed on human neuroblastoma SK-N-MC cells in culture from the American Type Culture Collection (ATCC), in all cases strict rules of sterility were followed and the manipulation was performed in class II biological safety cabinets following European standard EN 12469. The cells were maintained in the following culture medium: Minimum Essential Medium Eagle (MEM) supplemented with 1 mM sodium pyruvate, 2 mM L-glutamine, 0.1 mM non-essential amino acids, 0.05 mg/ml gentamicin and 10% fetal bovine serum.
The inhibition caused by compound NST0037 of cell death caused by treatment with camptothecin generating cell cycle arrest was analyzed. Camptothecin is an inhibitor of Topoisomerase I, it therefore prevents DNA duplication and triggers cell cycle arrest and death due to apoptosis. These cells, not exceeding 15 passages, were seeded on 96-well plates treated for adherent cells with a cell concentration of 5×10^4 cells/well; 3 wells of the plate were seeded for each condition of the assay.
After 24 hours of cell incubation at 37° C. and 5% CO2, the cell treatments were performed with 100 μl of total volume for the following conditions: • Control: culture medium (medium) • Camptothecin (CPT): medium plus camptothecin 20 nM, causing death of 50% of the cells. • Camptothecin plus NST0037: medium plus camptothecin (20 nM) plus NST0037 at 1, 4, 10, 20, 40 or 100 μM.
The cells were incubated (at 37° C. and 5% CO2) with these treatments for 22 hours, after which time the WST-1 reagent (Roche) was added. The Test WST-1 is based on the measurement of metabolic activity. Cell damage causes the loss of the ability of cells to obtain the energy necessary to maintain their metabolic functions and cell growth, therefore the metabolically active (live) cells reduce tetrazolium salt to formazan by means of the succinate-tetrazolium reductase system (of the mitochondrial respiratory chain). The formazan which is formed can be detected colorimetrically since it has an absorbance of 440 nm. The reading was taken in a plate reader at 440 nm 2 hours after adding the reagent.

[2] = tested on: human neuroblastoma SK-N-MC cells; experiment: Inhibition of camptothecin-induced apoptosis by flow cytometry (sub-G1); assay type: cell-based; settings: 50 μM camptothecin
Method: as §1
The inhibition caused by compound NST0037 against apoptosis (programmed cell death) caused by treatment with camptothecin which inhibits the enzyme Topoisomerase I, which prevents DNA duplication and triggers apoptotic cell death, was analyzed. These cells, not exceeding 15 passages, were seeded on 6-well plates treated for adherent cells with a cell concentration of 8×10^5 cells/well and 7×10^5 cells/well for the assay with pretreatment; 2 wells of the plate were seeded for each condition of the assay.
After 24 hours of cell incubation at 37° C. and 5% CO2, the cell treatments were performed with 2 ml of total volume for the following conditions: • Control: culture medium (medium) • Camptothecin: medium plus camptothecin 50 μM. • Camptothecin plus Z-VAD-fmk: medium plus 50 μM camptothecin plus 50 μM Z-VAD-fmk, as positive inhibition control. • Camptothecin plus NST0037: medium plus 50 μM camptothecin plus NST0037 at 10, 40 or 100 μM.
In the assay with pretreatment, the cells were previously treated with 40 μM of NST0037, 100 μM of mevalonate or both together for 24 hours and then they were treated with 50 μM camptothecin, the rest of the procedure was similar to the assay without pretreatment.
The cells were incubated (at 37° C. and 5% CO2) with these treatments for 6 hours, after which time they were collected along with their culture medium and centrifuged at 300×g for 5 minutes. The medium was removed, a washing was performed with PBS and the cells were fixed for 2 minutes with 500 μl of 70% ethanol at −20° C. Once fixed, they were centrifuged at 400×g for 5 minutes, washed with PBS and 0.05 mg/ml propidium iodide, diluted in cycling buffer (0.1% sodium citrate, 0.3% Nonidet P-40 and 0.02 mg/ml RNase) were added and they were incubated for 1 hour at 37° C. After this time they were analyzed by flow cytometry, comparing the fluorescence of propidium iodide against the amount of DNA. The percentage of apoptosis was measured on the sub-G1 region of each of the conditions.

[3] = tested on: human neuroblastoma SK-N-MC cells; experiment: Protection against neuronal death induced by inhibition of succinate dehydrogenase (3-NP), WST-1; assay type: cell-based; settings: 40 μM NST0037; 30 μM 3-NP
Method: as §1
The inhibition caused by compound NST0037 of cell death caused by treatment with 3-Nitropropionic (3-NP) acid was analyzed. 3-NP is an irreversible inhibitor of the succinate dehydrogenase enzyme which in animal models causes oxidative stress and apoptotic cell death in the striatum, which mimics neurochemical and anatomical changes associated with Huntington's disease (HD). […]
The cells were incubated (at 37° C. and 5% CO2) with these treatments for 22 hours, after which time the WST-1 reagent (Roche) was added. […] The formazan which is formed can be detected colorimetrically since it has an absorbance of 440 nm. The reading was taken in a plate reader at 440 nm 2 hours after adding the reagent.

[4] = tested on: seladin-1/DHCR24 gene; experiment: seladin-1/DHCR24 gene expression in brain of wild-type mice; assay type: in vivo; settings: 50 mg/kg oral, 4 hours, male C57BL6 mice
Method: A control group received only the vehicle, which consisted of 0.25% carboxy methylcellulose in physiological saline. 4 hours after the oral administrations, the animals were sacrificed under gas anesthesia with isoflurane and the brains, previously perfused with PBS, were removed and immediately afterwards frozen in liquid nitrogen. Subsequently, the total RNA of the brain was extracted by means of the High Pure RNA Isolation kit (Roche) and the amount and quality of the RNA were analyzed by means of spectrophotometry (Infinite 200 with NanoQuant, Tecan) and viewing of the 18S and 28S bands by means of electrophoresis. The RT-PCR was performed by means of two steps, first, the mRNA was changed to cDNA using the RNA to cDNA kit (Applied Biosystem) and the gene expression was subsequently analyzed by means of TagMan probes using the validated probes Mn00519071_m1 for seladin-1/DHCR24 and Hs99999901_s1 for 18S (used to normalize the results) in the 7500 Fast Real-Time PCR System equipment (Applied Biosystem). The relative amount of the gene expression was determined by using the ΔΔCt method with the SDS v2.1.1 software (Applied Biosystem); the expression of 18S was used to normalize the measurement.

Q: For `CCC(CC)C(=O)O[C@H]1C[C@@H](C)C=C2C=C[C@H](C)[C@H](CC[C@@H]3C[C@@H](O)CC(=O)O3)[C@H]21` [NST0037, (1S,2S,6R,8S,8aR)-1,2,6,7,8,8a-hexahydro-3,7-dimethyl-8-[2-[(2R,4R)-tetrahydro-4-hydroxy-6-oxo-2H-pyran-2-yl]ethyl]-1-naphthalenyl-2-ethyl-butyrate], which “protection against death caused by camptothecin” value ([1]; 4 μM NST0037) is on record?
A: 18%

Q: What about the “protection against death caused by camptothecin” value ([1]; 10 μM NST0037) of the same molecule?
A: 28%

Q: And the “protection against death caused by camptothecin” value ([1]; 40 μM NST0037)?
A: 27%

Q: And the “protection against death caused by camptothecin” value ([1]; 100 μM NST0037)?
A: 27%

Q: What about the “maximum protection (inhibition of apoptosis caused by camptothecin)” value ([2]; 40 and 100 μM NST0037, 6 h, no pretreatment) of the same molecule?
A: 18%

Q: What about the “percentage of protection (inhibition of apoptosis) with pretreatment” value ([2]; 24 h pretreatment with 40 μM NST0037) of the same molecule?
A: up to 45%

Q: And the “protection against death caused by 3-NP” value [3]?
A: 41%

Q: What about the “seladin-1/DHCR24 gene expression in brain” value [4] of the same molecule?
A: increased the gene expression
